Structures can show the parent of a compound that is named as a salt.
What was measured:
calcium channel = settings: (R)-enantiomer compared with the other enantiomer of lercanidipine; cited from earlier work
[1] = (R)-enantiomer compared with the other enantiomer of lercanidipine; cited from earlier work
[2] = tested on: REC1_2 (MspI AATC 108) mRNA; experiment: quantified RT-PCR, Rec1_2; format: in vivo, rabbit; settings: for Relative Abundance Rec1_2, 500 pg F: hypercholesterolemic plus lercanidipine racemate, eight weeks, H2 (normocholesterolemic)=1.0
Experimental: (§1) Nineteen of the isolated DST clones were further validated using RT-PCR analyses; the data are presented in FIGS. 6-24 and in Tables 5-23, below. For each DST examined, the optimal annealing temperature and reagent conditions were determined for the corresponding set of primers (see Table 25) based on results from a preliminary experiment. In eight separate reactions, each set of primers was assayed to find the optimal conditions by adjusting the following four parameters: primer concentration, dNTP concentration, MgCl2 concentration, and number of Taq polymerase units. Once optimal conditions were determined, each DST was run in duplicate multiple simultaneous reactions which usually included at least four dilutions of template (cDNA library), plus control reactions lacking template, and six sequential data points for numbers of cycles.
(§2) Reactions were performed using “Hot Start” PCR with the Clontech TaqStart antibody system (Cat. #5400-1). Each reaction contained 1 ml of the cDNA library dilution as template, determined amounts of AmpliTaq DNA polymerase (cat. #N808-0156), MgCl2, dNTPs (GibcoBRL cat. #10297-018), primer, and Clontech TaqStart Antibody in a 20 ml final reaction volume using 10×Taq buffer II (without MgCl2). Typically, a master mix containing all components except the template was prepared and aliquoted. Various templates were then added to these master mix samples and 20 ml volumes were subsequently dispensed into individual reaction tubes. At various times during the PCR run, tubes were removed sequentially on a predetermined schedule in order to quantitate expression of the target DST over a “window” of cycle times. After amplification, the samples were quantified via fluorimetry.
(§3) PCR was performed at annealing temperatures that were five degrees above the average melting temperature of each primer pair. For primers greater than 10 bases (in a 0.05M salt solution), melting temperature was calculated using the following formula: Tm=59.9+41[% GC]−[675/Primer Length], where %GC is the decimal value. Following determination of the average melting temperature of the primer pair, the annealing temperature was determined by adding five degrees to the average melting temperature. PCR was performed using the following program: 1) 95 degrees Celsius, 3 minutes; 2) 95 degrees Celsius, 30 seconds; 3) TM+5 degrees Celsius, 30 seconds; 4) 72 degrees Celsius, for a time dependent on target length at 16 bp/second; 5) repeat steps 2-4 33 more cycles; 6) 72 degrees Celsius, 3 minutes; 7) 14 degrees Celsius, forever.
(§4) Following temperature cycling, 2 ml of the PCR reaction was added to 140 ml of a 1:280 dilution of PicoGreen (Molecular Probes cat. #P-11495 (10×100 ml)) in TE pH 7.5 in a 96-well Costar UV microtiter plate (Fisher cat. #07-200623). The samples were mixed gently for 1.5 minutes and allowed to equilibrate at room temperature in the dark for 15 minutes. The concentration of the PCR products was quantified by fluorimetry using a PerSeptive Biosystems CytoFluor series 4000 multi-well plate reader.
(§5) Background fluorescence was determined by using duplicate control samples that were cycled with all reaction components except the template. The mean value from these duplicate background control samples was subtracted from the corresponding experimental values prior to analyzing results. The sensitivity of the PicoGreen dsDNA assay is reported to be 250 pg/ml (50 pg dsDNA in a […] assay volume) using a fluorescence microplate reader such as was used in these measurements. […]

[3] = tested on: REC1_3 (MspI ACGG 162) mRNA; experiment: quantified RT-PCR, Rec1_3; format: in vivo, rabbit; settings: for Relative Abundance Rec1_3, 500 pg F: hypercholesterolemic plus lercanidipine racemate, eight weeks, H2 (normocholesterolemic)=1.0
Experimental: as §1, §2, §3, §4, §5

[4] = tested on: REC1_8 (MspI CCCG 243) mRNA; experiment: quantified RT-PCR, Rec1_8; format: in vivo, rabbit; settings: for Relative Abundance Rec1_8, 20 pg F: hypercholesterolemic plus lercanidipine racemate, eight weeks, H2 (normocholesterolemic)=1.0
Experimental: as §1, §2, §3, §4, §5

[5] = tested on: REC1_13 (MspI GCCC 216) mRNA; experiment: quantified RT-PCR, Rec1_13; format: in vivo, rabbit; settings: for Relative Abundance Rec1_13, 100 pg F: hypercholesterolemic plus lercanidipine racemate, eight weeks, H2 (normocholesterolemic)=1.0
Experimental: as §1, §2, §3, §4, §5

REC1_17 (TCGT 199) mRNA = experiment: quantified RT-PCR, Rec1_17; format: in vivo, rabbit; settings: for Relative Abundance Rec1_17, 20 pg F: hypercholesterolemic plus lercanidipine racemate, eight weeks, H2 (normocholesterolemic)=1.0
Experimental: as §1, §2, §3, §4, §5

Rec1_36 (TTAG 155) mRNA = experiment: quantified RT-PCR, Rec1_36; format: in vivo, rabbit; settings: hypercholesterolemic plus lercanidipine racemate, eight weeks, H2 (normocholesterolemic)=1.0
Experimental: as §1
Reactions were performed using “Hot Start” PCR with the Clontech TaqStart antibody system (Cat. #5400-1). Each reaction contained 1 ml of the cDNA library dilution as template, determined amounts of AmpliTaq DNA polymerase (cat. #N808-0156), MgCl2, dNTPs (GibcoBRL cat. #10297-018), primer, and Clontech TaqStart Antibody in a 20 ml final reaction volume using 10×Taq buffer II (without MgCl2). Typically, a master mix containing all components except the template was prepared and aliquoted. […] At various times during the PCR run, tubes were removed sequentially on a predetermined schedule in order to quantitate expression of the target DST over a “window” of cycle times. After amplification, the samples were quantified via fluorimetry.
PCR was performed at annealing temperatures that were five degrees above the average melting temperature of each primer pair. For primers greater than 10 bases (in a 0.05M salt solution), melting temperature was calculated using the following formula: Tm=59.9+41[% GC]−[675/Primer Length], where %GC is the decimal value. Following determination of the average melting temperature of the primer pair, the annealing temperature was determined by adding five degrees to the average melting temperature. […]

[6] = arterial blood pressure in treated rabbits; format: in vivo; settings: doses utilized (3 mg/kg/week subcutaneously)
Experimental: The daily doses of cholesterol (1.6 g) were given in the morning (at 08.00 hours) each mixed in 20 g of food pellets. Normal chow, up to 150 g, was added after all the cholesterol-rich diet was eaten (usually within 30 minutes). The hydrochloride salt of lercanidipine or (R)-lercanidipine (Recordati, Milano, Italy) was administered subcutaneously as a solution in 50% propylene glycol. […] Animals had free access to water and were kept in a 12 hour light-dark cycle. Blood was drawn from the central ear artery at day 29 after treatment, started in order to monitor the lercanidipine plasma level at 24 hour post-dose.

smooth muscle cell = settings: in vitro (Corsini et al. 1996); cited from earlier work
[7] = hypercholesterolemic animals receiving lercanidipine racemate

**Q.** With `COC(=O)C1=C(C)NC(C)=C(C(=O)OC(C)(C)CN(C)CCC(c2ccccc2)c2ccccc2)[C@@H]1c1cccc([N+](=O)[O-])c1.Cl` (single isomer, unassigned) [(R)-lercanidipine] as the compound, how does the “effectiveness as a ligand to the calcium channel, less effective” value (calcium channel) read?
**A.** The value was 2-3 orders of magnitude.

**Q.** What about the “effectiveness in lowering blood pressure, less effective” value [1] of the same compound?
**A.** The value was 2-3 orders of magnitude.

**Q.** For `COC(=O)C1=C(C)NC(C)=C(C(=O)OC(C)(C)CN(C)CCC(c2ccccc2)c2ccccc2)C1c1cccc([N+](=O)[O-])c1` (racemic) [lercanidipine, lercanidipine hydrochloride], which “Relative Abundance Rec1_2, 500 pg F” value ([2]; cycle 22) is on record?
**A.** Its value is 2.7.

**Q.** And the “Relative Abundance Rec1_2, 500 pg F” value ([2]; cycle 24)?
**A.** Its value is 0.6.

**Q.** And the “Relative Abundance Rec1_2, 500 pg F” value ([2]; cycle 26)?
**A.** Its value is 5.0.

**Q.** And the “Relative Abundance Rec1_2, 500 pg F” value ([2]; cycle 28)?
**A.** Its value is 6.6.

**Q.** And the “Relative Abundance Rec1_2, 500 pg F” value ([2]; cycle 30)?
**A.** Its value is 2.5.

**Q.** What about the “Relative Abundance Rec1_2, 500 pg F” value ([2]; cycle 32) of the same compound?
**A.** The value was 1.6.

**Q.** What about the “expression of Rec1_2 at 8 weeks (RT-PCR study), in words” value [2, 7] of the same compound?
**A.** The value was “elevated”.

**Q.** What about the “Relative Abundance Rec1_3, 500 pg F” value ([3]; cycle 26) of the same compound?
**A.** The value was 0.0.

**Q.** What about the “Relative Abundance Rec1_3, 500 pg F” value ([3]; cycle 28) of the same compound?
**A.** The value was 0.0.

**Q.** What about the “Relative Abundance Rec1_3, 500 pg F” value ([3]; cycle 30) of the same compound?
**A.** The value was 0.0.

**Q.** And the “Relative Abundance Rec1_3, 500 pg F” value ([3]; cycle 32)?
**A.** Its value is 0.1.

**Q.** And the “Relative Abundance Rec1_3, 500 pg F” value ([3]; cycle 34)?
**A.** Its value is 0.4.

**Q.** And the “expression of Rec1_3 at 8 weeks (RT-PCR study), in words” value ([3]; hypercholesterolemic animals receiving lercanidipine racemate, compared with hypercholesterolemic animals at 14 days)?
**A.** The value was “lower”.

**Q.** What about the “Relative Abundance Rec1_8, 20 pg F” value ([4]; cycle 26) of the same compound?
**A.** The value was 4.6.

**Q.** What about the “Relative Abundance Rec1_8, 20 pg F” value ([4]; cycle 28) of the same compound?
**A.** Its value is 2.2.

**Q.** And the “Relative Abundance Rec1_8, 20 pg F” value ([4]; cycle 30)?
**A.** The value was 3.5.

**Q.** What about the “Relative Abundance Rec1_8, 20 pg F” value ([4]; cycle 32) of the same compound?
**A.** The value was 4.8.

**Q.** What about the “Relative Abundance Rec1_8, 20 pg F” value ([4]; cycle 34) of the same compound?
**A.** Its value is 2.1.

**Q.** What about the “Relative Abundance Rec1_8, 20 pg F” value ([4]; cycle 36) of the same compound?
**A.** Its value is 2.1.

**Q.** And the “expression of Rec1_8 at 8 weeks (RT-PCR study), in words” value [4, 7]?
**A.** Its value is “elevated”.

**Q.** What about the “Relative Abundance Rec1_13, 100 pg F” value ([5]; cycle 20) of the same compound?
**A.** The value was 1.4.

**Q.** And the “Relative Abundance Rec1_13, 100 pg F” value ([5]; cycle 22)?
**A.** The value was 33.7.

**Q.** What about the “Relative Abundance Rec1_13, 100 pg F” value ([5]; cycle 24) of the same compound?
**A.** Its value is 3.0.

**Q.** What about the “Relative Abundance Rec1_13, 100 pg F” value ([5]; cycle 26) of the same compound?
**A.** Its value is 1.9.

**Q.** And the “Relative Abundance Rec1_13, 100 pg F” value ([5]; cycle 28)?
**A.** Its value is 1.2.

**Q.** And the “Relative Abundance Rec1_13, 100 pg F” value ([5]; cycle 30)?
**A.** The value was 1.3.

**Q.** And the “expression of Rec1_13 at 8 weeks (RT-PCR study), in words” value [5, 7]?
**A.** Its value is “elevated”.

**Q.** What about the “Relative Abundance Rec1_17, 20 pg F” value (REC1_17 (TCGT 199) mRNA; cycle 24) of the same compound?
**A.** The value was 0.01.

**Q.** What about the “Relative Abundance Rec1_17, 20 pg F” value (REC1_17 (TCGT 199) mRNA; cycle 26) of the same compound?
**A.** Its value is 0.00.

**Q.** And the “Relative Abundance Rec1_17, 20 pg F” value (REC1_17 (TCGT 199) mRNA; cycle 28)?
**A.** The value was 0.09.

**Q.** What about the “Relative Abundance Rec1_17, 20 pg F” value (REC1_17 (TCGT 199) mRNA; cycle 30) of the same compound?
**A.** The value was 0.08.

**Q.** What about the “Relative Abundance Rec1_17, 20 pg F” value (REC1_17 (TCGT 199) mRNA; cycle 32) of the same compound?
**A.** The value was 0.21.

**Q.** And the “Relative Abundance Rec1_17, 20 pg F” value (REC1_17 (TCGT 199) mRNA; cycle 34)?
**A.** Its value is 0.43.

**Q.** What about the “expression of Rec1_17 at 8 weeks (RT-PCR study), in words” value (REC1_17 (TCGT 199) mRNA; hypercholesterolemic animals receiving lercanidipine) of the same compound?
**A.** Its value is “decreased”.

**Q.** What about the “Relative Abundance Rec1_36, 100 pg F” value (Rec1_36 (TTAG 155) mRNA; cycle 30) of the same compound?
**A.** Its value is 0.2.

**Q.** And the “Relative Abundance Rec1_36, 100 pg F” value (Rec1_36 (TTAG 155) mRNA; cycle 32)?
**A.** The value was 0.5.

**Q.** What about the “Relative Abundance Rec1_36, 100 pg F” value (Rec1_36 (TTAG 155) mRNA; cycle 34) of the same compound?
**A.** Its value is 0.4.

**Q.** What about the “effect on arterial blood pressure” value [6] of the same compound?
**A.** The value was “did not affect”.

**Q.** And the “smooth muscle cell migration and proliferation” value (smooth muscle cell)?
**A.** The value was “effectively reduce”.

Reference: patent US20030215817A1, “Modulation of gene expression in formation of fatty atherosclerotic lesions” (priority 2003, published 2003)
